Activity calls are given as the source filed them. No rule for the calls is given here.
What was measured:
[1] = E-selectin induction blockers, endothelial cells – imaging, retest plus dose response, cell count, confirmation (AID 1288); settings: human endothelial cells, TNFa-induced E-selectin, imaging; cell count toxicity; at 10 µM; stronger effect = lower value
[2] = system: human endothelial cells, TNFa-induced E-selectin, imaging; assay: as above

Compound	cell count [1] [%]	IC50 [2]
CC(C)(C)C(=O)/C(=C/c1cccc([N+](=O)[O-])c1)n1cncn1	101	> 10 µM (inactive)
COc1ccc(NC(=O)/C(Cl)=C(/Cl)S(=O)(=O)Cc2ccc(C)cc2)cn1	89.6	> 10 µM (inactive)
CN(CCC#N)C(=O)COC(=O)c1ccccc1C(=O)c1ccc(Cl)c([N+](=O)[O-])c1	15.6	1.37 µM
COc1ccc(NC(=O)/C(Cl)=C(/Cl)S(=O)Cc2ccccc2Cl)cn1 (stereo unspecified)	99.9	5.39 µM
CC1C/C(=C/c2ccncc2)C(=O)/C(=C/c2ccncc2)C1 (stereo unspecified)	84.9	4.92 µM
O=C(Nc1ccccc1)c1nnsc1S(=O)c1ccc(Cl)cc1 (stereo unspecified)	16.1	3.58 µM
N#CC(C#N)=C1C=CC=CN1/C(=C\c1ccco1)C(=O)c1ccc(-c2ccccc2)cc1	2.93	2.85 µM
O=C(OCn1ncc(Cl)c(Cl)c1=O)c1ccc(F)cc1	107	> 10 µM (inactive)
CN(C)C(=O)Oc1c(Cl)cc(Cl)c2cccnc12	20.8	2.55 µM
COc1ccc(-c2cc(C(=O)Nc3cnn(Cc4ccccc4C)c3)no2)cc1OC	80.4	6.19 µM
Cc1ccccc1NC1=C/C(=N\S(=O)(=O)c2cccs2)c2ccccc2C1=O	107	> 10 µM (inactive)
Oc1ccc(N2CCN(c3ncnc4sc(-c5ccccc5)cc34)CC2)cc1	25.6	1.88 µM
Cc1ccc2nc(-c3ccc(NC(=O)CCN4C(=O)c5ccccc5C4=O)cc3)sc2c1	107	> 10 µM (inactive)
CCN1C/C(=C/c2ccc(OC)c(O)c2)C(=O)/C(=C/c2ccc(OC)c(O)c2)C1	15.1	3.01 µM
COc1cc(NC(=O)Cn2ncc(Cl)c(Cl)c2=O)c(C)cc1[N+](=O)[O-]	90.1	> 10 µM (inactive)
O=C(Nc1ccc2nc(SCc3ccc(Cl)cc3)sc2c1)c1ccccc1C(=O)N1CCOCC1	40	2.83 µM
CN1C(=O)/C(=C/c2cccn2-c2ccc3ccccc3c2)C(=O)NC1=S	106	6.93 µM

Compound	cell count [1] [%]	IC50 [2]
COc1ccc(CS(=O)(=O)/C(Cl)=C(/Cl)C(=O)Nc2ccc(OC)nc2)cc1	105	> 10 µM (inactive)
Cc1ccc(-c2nc(NC(=O)c3nn(C)cc3[N+](=O)[O-])sc2C)cc1C	106	> 10 µM (inactive)
CN1C2CCC1/C(=C/c1ccccn1)C(=O)/C2=C\c1ccccn1	51.6	2.8 µM
Cc1ccc2nc3cc([N+](=O)[O-])cc([N+](=O)[O-])c3cc2c1	101	> 10 µM (inactive)
COc1ccc(NC(=O)/C(Cl)=C(/Cl)S(=O)Cc2ccc(Cl)cc2)cn1 (stereo unspecified)	0.27	1.66 µM
CC(C)Oc1ccc(/C=N/NC(=O)C(CSCc2ccccc2)NC(=O)c2ccc([N+](=O)[O-])cc2)cc1 (stereo unspecified)	71.8	> 10 µM (inactive)
CCOC(=O)CS(=O)(=O)c1nc(-c2ccc(F)cc2)cc(C(F)(F)F)n1	98.3	> 10 µM (inactive)
O=C(/C=C/c1cccc([N+](=O)[O-])c1)n1cnc2ccccc21	19.1	3.81 µM
O=C(c1ccc([N+](=O)[O-])cc1)N(Cc1ccc(Br)cc1)N1C(=O)CCCC1=O	95.3	6.82 µM
COc1cccc(N2CCN(c3ncnc4c3[nH]c3ccc(F)cc34)CC2C)c1 (stereo unspecified)	40.9	1.41 µM
CCCn1c(=NC(=O)c2ccco2)c(C(=O)OCC)cc2c(=O)n3ccccc3nc21	64.4	4.41 µM
N#Cc1ccc(-c2cccnc2)nc1SCc1ccc(Cl)c(Cl)c1	2.48	2.75 µM
COC(=O)/C=C/S(=O)(=O)c1ccc(NC(C)=O)cc1	106	> 10 µM (inactive)
CCOc1cc(C(=O)NCc2ccc(-c3nc4ccccc4o3)cc2)cc(OCC)c1OCC	22.9	2.39 µM
Cc1ccc(C(=O)OCn2ncc(Cl)c(Cl)c2=O)cc1	101	> 10 µM (inactive)
N#CC(C#N)=C1C=CC=CN1/C(=C\c1ccccc1Cl)C(=O)c1ccccc1	68.3	4.99 µM
